Here are results for two compounds from ChEMBL document CHEMBL1125257, “Dihydropyrimidine calcium channel blockers. 3. 3-Carbamoyl-4-aryl-1,2,3,4-tetrahydro-6-methyl-5-pyrimidinecarboxylic acid esters as orally effective antihypertensive agents” (J Med Chem, 1991).

In the experiment the test system is Rattus norvegicus. The experiment in a line: Antihypertensive activity when administered orally to spontaneously hypertensive rats. In kind it is functional, organism-based.

One may read the IC50 as the concentration at which inhibition is half-maximal. Higher therefore signals lower potency.

For the compound `CCOC(=O)C1=C(COCCN)NC(C)=C(C(=O)OC)C1c1ccccc1Cl` (configuration not stated) [AMLODIPINE], inhibition was half-maximal at 2.5 nM (IC50).
As for `COC(=O)C1=C(C)NC(C)=C(C(=O)OC)C1c1ccccc1[N+](=O)[O-]` [NIFEDIPINE], the figure is 2.5 nM.
